Source: article PMC10683482, “Offsetting Low-Affinity Carbohydrate Binding with Covalency to Engage Sugar-Specific Proteins for Tumor-Immune Proximity Induction” (ACS Central Science, 2023)

Tested on: PSMA-expressing target cells (Hek-PSMA, LNCaP, C4-2)
Assay: ADCP assay with anti-23F and U937 monocytes
Format: cell-based, human
Settings: 8 μM compound with 4 μM anti-23F 24 h; 1 h, 37 °C; flow cytometry
Protocol: Figure 5 Functional analysis of PSMA-targeting SuFEx cARMs. A. Chemical structure of the functional GU cARM molecule used for PSMA targeting. B. Confocal (top) and fluorescent imaging (bottom) of Hek-PSMA cells treated with anti-23F only or anti-23F antibody pre-incubated with rhamnose-SO2F-cARM 14. C. Jurkat activation assay evaluation of 14 directly in polyclonal human IgG. Each cARM/ARM (9 μM) was incubated with polyclonal human IgG (230 μM) overnight and then added to pre-plated Hek-P cells (50,000 cells). To this cell solution, luciferase expressing jurkat cells were added and incubated for 24 hours. Activation of jurkat cells was determined by measuring luciferase expression with a BioGlo assay kit. D. ADCP assays using various PSMA-expressing model and bonafide cancer cell lines. Each cARM/ARM (8 μM) was incubated with anti-23F (4 μM) overnight followed by addition to target cells (150,000 cells). Next, IFN-γ activated monocytes (150,000 cells) were added and incubated for 1 hour at 37 °C. ADCP was determined via flow cytometry.
Finally, the capacity of Rha-cARMs to induce ADCP of multiple target cell lines (varying in PSMA expression) was evaluated. ADCP represents a major mode of antitumor monocyte/macrophage immunotherapeutic function, also invoked by several FDA-approved monoclonal antibody therapies. […]

SMILES	induction of ADCP
C[C@@H]1O[C@@H](OCc2cn(CCCNC(=O)OCCNC(=O)CCCCCNC(=O)CCCCCNC(=O)CCCCCNC(=O)NCCCC[C@H](NC(=O)N[C@@H](CCC(=O)O)C(=O)O)C(=O)O)nn2)[C@H](O)[C@H](O)[C@H]1O [compound 11]	failure
C[C@@H]1O[C@@H](OCc2cn(CCc3cn(C(=O)OCCNC(=O)CCCCCNC(=O)CCCCCNC(=O)CCCCCNC(=O)NCCCC[C@H](NC(=O)N[C@@H](CCC(=O)O)C(=O)O)C(=O)O)cn3)nn2)[C@H](O)[C@H](O)[C@H]1O [compound 10]	nonfunctional
